Results published in US10597388B2, “Pyridazinone herbicides” (FMC CORPORATION, priority 2014, dated 2020).

How the values were obtained:
Assay type in all cases: in vivo
[1] = tested on: corn (Zea mays); test: Test A greenhouse herbicide test, pre- and postemergence; details: for Corn plant response rating (crop injury, 0 = no effect, 100 = complete kill) at 125 g/ha / plant injury at 500 g/ha: post-emergence; for Corn plant response rating (crop injury, 0 = no effect, 100 = complete kill) at 125 g/ha / plant injury at 500 g/ha / Plant response rating, Corn / Corn plant response rating: Postemergence; for plant injury at 500 g/ha / Corn plant response rating: 0 is no effect, 100 is complete control
Method in brief: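 Visual injury ratings, 0 (no effect) to 100 (complete control), versus untreated plants after roughly 10 d in a greenhouse. Compounds, formulated in a surfactant-containing non-phytotoxic solvent, were sprayed on loam–sand soil after sowing (pre) or on one- to two-leaf plants 2–10 cm tall (post).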

[2] = tested on: barnyardgrass (Echinochloa crus-galli); test: Test B flooded paddy test; details: Echinochloa crus-galli, 360 h; 250 g ai/ha, Flood; visual rating on scale of 0 to 100 where 0 is no effect and 100 is complete control; 13 to 15 d after treatment; read-out: Plant response rating, Barnyardgrass
Method in brief: (§1)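 Ratings use a 0-100 visual scale, where 100 is complete control, and compare treated plants with controls after 13 to 15 d of greenhouse growth. Compound went straight into paddy water kept 3 cm over the soil surface, applied to seedlings at the 2-leaf stage.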

[3] = tested on: ducksalad (Heteranthera limosa); test: Test B flooded paddy test; details: Heteranthera limosa, 360 h; 250 g ai/ha, Flood; visual rating on scale of 0 to 100 where 0 is no effect and 100 is complete control; 13 to 15 d after treatment; read-out: Plant response rating, Ducksalad
Method in brief: as §1

[4] = tested on: rice (Oryza sativa); test: Test B flooded paddy test; details: Oryza sativa, 360 h; 250 g ai/ha, Flood; visual rating on scale of 0 to 100 where 0 is no effect and 100 is complete control; 13 to 15 d after treatment; read-out: Plant response rating, Rice
Method in brief: as §1

[5] = tested on: sedge, umbrella (small-flower umbrella sedge, Cyperus difformis); test: Test B flooded paddy test; details: Cyperus difformis, 360 h; 250 g ai/ha, Flood; visual rating on scale of 0 to 100 where 0 is no effect and 100 is complete control; 13 to 15 d after treatment; read-out: Plant response rating, Sedge, Umbrella
Method in brief: as §1

[6] = tested on: chickweed (common chickweed, Stellaria media); test: Test C greenhouse herbicide test, postemergence
Description: (§2) At the same time, plants selected from these crop and weed species and also chickweed (common chickweed, Stellaria media), kochia (Kochia scoparia), and oat, wild (wild oat, Avena fatua), were planted in pots containing Redi-Earth® planting medium (Scotts Company, 14111 Scottslawn Road, Marysville, Ohio 43041) comprising spaghnum peat moss, vermiculite, wetting agent and starter nutrients and treated with postemergence applications of test chemicals formulated in the same manner. Plants ranged in height from 2 to 18 cm (1- to 4-leaf stage) for postemergence treatments. Treated plants and controls were maintained in a greenhouse for 13 to 15 d, after which time all species were compared to controls and visually evaluated. Plant response ratings, summarized in Table C, are based on a scale of 0 to 100 where 0 is no effect and 100 is complete control. A dash (-) response means no test result.

[7] = tested on: kochia (Kochia scoparia); test: Test C greenhouse herbicide test, postemergence
Description: as §2

[8] = tested on: oat, wild (wild oat, Avena fatua); test: Test C greenhouse herbicide test, postemergence
Description: as §2

[9] = Zea mays, 240 h, 125 g ai/ha, visual rating after approx. 10 d, 0 to 100 scale (0 no effect, 100 complete control)
[10] = Zea mays, 240 h, 500 g ai/ha, 0 to 100 scale, read-out: Corn plant response rating
[11] = Postemergence, 31 g ai/ha, 0 to 100 scale (0 no effect, 100 complete control)
[12] = Postemergence, 125 g ai/ha, scale 0 to 100, 0 is no effect, 100 is complete control
[13] = Postemergence, 250 g ai/ha, scale 0 to 100, 0 no effect, 100 complete control, 13 to 15 d
[14] = postemergence, 62 g ai/ha, scale 0 to 100, 0 no effect, 100 complete control
[15] = 125 g ai/ha, 0 to 100 scale where 0 is no effect and 100 is complete control
[16] = Postemergence, 16 g ai/ha, scale 0 to 100 (0 no effect, 100 complete control)
[17] = 500 g ai/ha, visual rating after approx. 10 d, 0 to 100 scale (0 no effect, 100 complete control)
[18] = Postemergence, 31 g ai/ha, scale 0 to 100 (0 no effect, 100 complete control)
[19] = Postemergence, 62 g ai/ha, 0 to 100 scale (0 no effect, 100 complete control)
[20] = postemergence, 125 g ai/ha, scale 0 to 100, 0 no effect, 100 complete control

SMILES	Corn plant response rating (crop injury, 0 = no effect, 100 = complete kill) at 125 g/ha [1, 9]	plant injury at 500 g/ha [1, 10]	pest or weed control at 250 g/ha [2]	pest or weed control at 250 g/ha [3]	plant injury at 250 g/ha [4]	pest or weed control at 250 g/ha [5]	Corn plant response rating ([1]; 500 g ai/ha, 0 to 100 scale)	Chickweed plant response rating [6, 11]	Plant response rating, Chickweed [6, 12]	Plant response rating, Chickweed [6, 13]	Chickweed plant response rating [6, 14]	Plant response rating, Kochia [7, 12]	Plant response rating, Kochia [7, 13]	Kochia plant response rating [7, 14]	Plant response rating, Oat, Wild [8, 12]	Plant response rating, Oat, Wild [8, 13]	Oat, Wild plant response rating [8, 14]	Plant response rating, Corn [1, 15]	Plant response rating, Corn [1, 17]	Plant response rating, Chickweed [6, 18]	also measured
Cc1nn(C)c(=O)c(-c2c(C)oc3c(C)cccc23)c1O [Compound 9, 4-(2,7-dimethyl-3-benzofuranyl)-5-hydroxy-2,6-dimethyl-3(2H)-pyridazinone]	0%	0%	0%	0%	0%	0%															plant injury at 125 g/ha ([1]; Zea mays, pre-emergence, 240 h, Preemergence, 125 g ai/ha, 0 to 100 scale where 0 is no effect and 100 is complete control, read-out: Corn plant response rating): 0%; Corn plant response rating (crop injury, 0 = no effect, 100 = complete kill) at 500 g/ha ([1]; Zea mays, pre-emergence, 240 h, Preemergence, 500 g ai/ha, 0 to 100 scale, 0 no effect, 100 complete control): 0%
Cc1cc(C)c2oc(C)c(-c3c(O)c(C)nn(C)c3=O)c2c1 [Compound 12, 5-hydroxy-2,6-dimethyl-4-(2,5,7-trimethyl-3-benzofuranyl)-3(2H)-pyridazinone]	0%	0%	0%	30%	0%	0%															
CC(=O)Oc1c(C)nn(C)c(=O)c1-c1c(C)oc2c(C)cccc12 [Compound 15, 5-(acetyloxy)-4-(2,7-dimethyl-3-benzofuranyl)-2,6-dimethyl-3(2H)-pyridazinone]	0%	20%	0%	20%	0%	0%															
CCc1sc2cc(C)cc(C)c2c1-c1c(O)c(C)nn(C)c1=O [Compound 19, 4-(2-ethyl-4,6-dimethylbenzo[b]thien-3-yl)-5-hydroxy-2,6-dimethyl-3(2H)-pyridazinone]	0%	0%	0%	0%	0%	0%															
CCOC(=O)Oc1c(C)nn(C)c(=O)c1-c1c(CC)ccc2ccccc12 [Compound 37]							40	90	90	95	90	5	80	0	90	90	80				Plant response rating, Corn ([1]; 125 g ai/ha, visual rating after approx. 10 d, 0 to 100 scale (0 no effect, 100 complete control)): 0; Kochia plant response rating [7, 11]: 0; Oat, Wild plant response rating [8, 11]: 60
COc1ccc2ccccc2c1-c1c(O)c(C)nn(C)c1=O [Compound 40]							10	55	90		60	0		80	60		50	0			Plant response rating, Chickweed [6, 16]: 50; Plant response rating, Kochia [7, 16]: 20; Kochia plant response rating [7, 11]: 70; Plant response rating, Oat, Wild [8, 16]: 5; Oat, Wild plant response rating [8, 11]: 35
Cc1ccc(-c2c(O)c(Br)nn(C)c2=O)c2ccccc12 [Compound 52]							20	95	98	100	90	5	70	0	0	0	0	0			Kochia plant response rating [7, 11]: 0; Oat, Wild plant response rating [8, 11]: 0
CC(=O)Oc1c(C)nn(C)c(=O)c1-c1ccc(F)c2ccccc12 [Compound 90]							30	90	95	98	90	100	100	100	90	95	70	20			
Cc1nn(C)c(=O)c(-c2c(C)sc3ccc(Cl)cc23)c1O [Compound 104]									100	100	98	95	100		90	90		0	20	90	Plant response rating, Kochia [7, 18]: 95; Plant response rating, Oat, Wild [8, 18]: 80
CCCC(=O)Oc1c(C)nn(C)c(=O)c1-c1c(C)sc2c(C)cc(C)cc12 [Compound 106]									95	98	98	80	80		90	90		0	20	95	Plant response rating, Kochia [7, 18]: 70; Plant response rating, Oat, Wild [8, 18]: 50
CCC(=O)Oc1c(C)nn(C)c(=O)c1-c1c(C)sc2ccc(Cl)cc12 [Compound 109]									95	100	95	100	100		90	90		0	30	80	Plant response rating, Kochia [7, 18]: 95; Plant response rating, Oat, Wild [8, 18]: 80
CC(=O)Oc1c(Br)nn(C)c(=O)c1-c1c(C)ccc2ccccc12 [Compound 129]										100			95			98		10	80	98	Chickweed plant response rating [6, 19]: 98; Chickweed plant response rating [6, 20]: 100; Plant response rating, Kochia [7, 18]: 50; Kochia plant response rating [7, 19]: 60; Kochia plant response rating [7, 20]: 90; Plant response rating, Oat, Wild [8, 18]: 85; Oat, Wild plant response rating [8, 19]: 90; Oat, Wild plant response rating [8, 20]: 100
